Results as given in paper PMC12064818, “A general assay platform to study protein pharmacology using ligand-dependent structural dynamics” (Nature Communications, 2025).

target: T1, FLuc-C-HiBiT (Photinus pyralis, UniProt P08659); test: biochemical; conditions: enzyme activity, 10 uM ATP; read-out: IC50 or SDR50 (mM) / FLuc E
T1 construct: firefly luciferase with C-terminal HiBiT tag, E. coli expressed
T1 sequence (P08659 whole entry, looked up): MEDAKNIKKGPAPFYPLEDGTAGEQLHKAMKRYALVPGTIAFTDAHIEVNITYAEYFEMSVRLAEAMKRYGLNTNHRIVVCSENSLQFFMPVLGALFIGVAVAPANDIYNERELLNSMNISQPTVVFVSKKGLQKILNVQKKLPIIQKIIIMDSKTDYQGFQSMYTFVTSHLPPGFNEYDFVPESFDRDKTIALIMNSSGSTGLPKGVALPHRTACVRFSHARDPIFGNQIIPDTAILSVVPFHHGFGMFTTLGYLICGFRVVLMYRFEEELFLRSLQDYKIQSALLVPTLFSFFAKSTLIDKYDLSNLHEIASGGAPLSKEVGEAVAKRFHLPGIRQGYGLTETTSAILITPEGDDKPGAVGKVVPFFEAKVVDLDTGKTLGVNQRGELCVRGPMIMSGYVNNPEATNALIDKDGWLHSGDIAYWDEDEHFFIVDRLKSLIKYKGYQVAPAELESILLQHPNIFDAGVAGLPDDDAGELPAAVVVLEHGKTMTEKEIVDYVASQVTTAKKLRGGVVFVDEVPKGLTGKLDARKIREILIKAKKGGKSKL

Structure (SMILES) | IC50 [mM]
Cc1ccc(NC(=O)c2ccc(CN3C(=O)NC4(CCOCC4)C3=O)cc2)cc1C [NCGC00454605-01] | 0.0111
CC(C)c1ccc(NC(=O)c2ccc(CN3C(=O)NC4(CCOCC4)C3=O)cc2)cc1 [NCGC00454608-01] | 0.00351
O=C(NCc1ccc2c(c1)OCO2)C1CCN(c2cc(C(F)(F)F)ncn2)CC1 [NCGC00455586-01] | 0.0111
CC(C)n1cnnc1CC1CCN(C(=O)Nc2ccc3c(c2)OCCO3)CC1 [NCGC00456228-01] | 0.00989
Cc1ccc(-c2cc(C(=O)N3CCC(Cc4nncn4CC4CC4)CC3)c3ccccc3n2)cc1C [NCGC00456240-01] | 0.00197
O=C(c1cc(-c2ccc(F)cc2)nc2ccccc12)N1CCC(Cc2nncn2CC2CC2)CC1 [NCGC00456245-01] | 0.00881
CCn1cnnc1CC1CCN(C(=O)c2cc(-c3ccc(C)c(C)c3)nc3ccccc23)CC1 [NCGC00456253-01] | 0.00279
Cc1ccc(OCc2nc(C3CN(C(=O)c4n[nH]c5ccccc45)C3)no2)cc1 [NCGC00456269-01] | 0.00881
CCC(C(=O)NCCn1ccn2nc(-c3ccc(OC)cc3)cc2c1=O)c1ccccc1 (stereo not shown) [NCGC00456905-01] | 0.0111
COc1ccc(-c2cc3c(=O)n(CCNC(=O)c4c(F)cccc4Cl)ccn3n2)cc1 [NCGC00456907-01] | 0.007
COc1ccc(-c2cc3c(=O)n(CCNC(=O)c4c(F)cccc4F)ccn3n2)cc1 [NCGC00456908-01] | 0.00495
COc1ccc(-c2cc3c(=O)n(CCNC(=O)c4ccco4)ccn3n2)cc1 [NCGC00456922-01] | 0.00989
COc1ccc(-c2cc3c(=O)n(CCNC(=O)Cc4cccs4)ccn3n2)cc1 [NCGC00456924-01] | 0.00989
COc1ccc(-c2cc3c(=O)n(CCNC(=O)c4cccc(N(C)C)c4)ccn3n2)cc1 [NCGC00456929-01] | 0.00351
CCOc1ccc(-c2cc3c(=O)n(CCNC(=O)c4cccc(C#N)c4)ccn3n2)cc1 [NCGC00456938-01] | 0.0007
CCOc1ccc(-c2cc3c(=O)n(CCNC(=O)c4cccc(N(C)C)c4)ccn3n2)cc1 [NCGC00456949-01] | 0.00394

Structure (SMILES) | IC50 [mM]
CCOc1ccc(-c2cc3c(=O)n(CCNC(=O)c4ccncc4)ccn3n2)cc1 [NCGC00456950-01] | 0.00351
CCOc1ccc(-c2cc3c(=O)n(CCNC(=O)c4cccc5[nH]ccc45)ccn3n2)cc1 [NCGC00456956-01] | 0.00556
Cc1ccc(-c2cc3c(=O)n(CCNC(=O)C4CCCCC4)ccn3n2)c(C)c1 [NCGC00456958-01] | 0.00248
COc1cccc(CC(=O)NCCn2ccn3nc(-c4ccc(C)cc4C)cc3c2=O)c1 [NCGC00456960-01] | 0.00881
Cc1ccc(-c2cc3c(=O)n(CCNC(=O)c4cccnc4)ccn3n2)c(C)c1 [NCGC00456961-01] | 0.00989
CC(=O)Nc1cccc(C(=O)NCCn2ccn3nc(-c4ccc(C)cc4C)cc3c2=O)c1 [NCGC00456962-01] | 0.00989
COc1cccc(C(=O)NCCn2ccn3nc(-c4ccc(C)cc4C)cc3c2=O)c1OC [NCGC00456963-01] | 0.00989
Cc1ccc(-c2cc3c(=O)n(CCNC(=O)Cc4cccc(F)c4)ccn3n2)c(C)c1 [NCGC00456965-01] | 0.00556
Cc1ccc(-c2cc3c(=O)n(CCNC(=O)c4ccc(C)s4)ccn3n2)c(C)c1 [NCGC00456966-01] | 0.007
COc1ccc(C(=O)NCCn2ccn3nc(-c4ccc(C)cc4C)cc3c2=O)cc1F [NCGC00456968-01] | 0.00351
Cc1ccc(-c2cc3c(=O)n(CCNC(=O)c4cccc(C#N)c4)ccn3n2)c(C)c1 [NCGC00456970-01] | 0.00313
Cc1ccc(-c2cc3c(=O)n(CCNC(=O)c4nn(C)c5ccccc45)ccn3n2)c(C)c1 [NCGC00456971-01] | 0.00157
Cc1ccc(-c2cc3c(=O)n(CCNC(=O)Cc4ccsc4)ccn3n2)c(C)c1 [NCGC00456972-01] | 0.00624
Cc1ccc(-c2cc3c(=O)n(CCNC(=O)c4nccc5ccccc45)ccn3n2)c(C)c1 [NCGC00456974-01] | 0.00881
COc1ccc(C(=O)NCCn2ccn3nc(-c4ccc(C)cc4C)cc3c2=O)c(C)c1 [NCGC00456977-01] | 0.00495
